The target in the test is PIK3CB;PIK3CG;PIK3CD;PIK3CA (human) (UniProt P48736). Nature of the test: Inhibition of PIK3CA/PIK3CB/PIK3CD/PIK3CG Kinase Activity.

Each structure is given as a SMILES string.

The IC50 is the concentration that gives 50% inhibition. High values mean weaker potency, low ones greater potency. As to `COc1cc(Nc2nc3ccccc3nc2NS(=O)(=O)c2cn(C)cn2)cc(C(=O)N(C)C)c1`, the IC50 was 760 nM.

`COc1ccc(CC2CCC(O)CC2)c(Nc2nc3ccccc3nc2NS(=O)(=O)c2ccc(CN(C)C)cc2)c1` (stereo unspecified) returned a 50% inhibitory concentration (IC50) of 26 nM.

`COc1ccc(CN2CCOCC2)c(Nc2nc3ccccc3nc2NS(=O)(=O)c2cccnc2)c1` gave an IC50 of 72 nM.

`COc1ccc(CC2CCCCC2)c(Nc2nc3ccccc3nc2NS(=O)(=O)c2cn(C)cn2)c1` gave an IC50 of 450 nM.

Consider `COc1ccc(CCO)c(Nc2nc3ccccc3nc2NS(=O)(=O)C2CCS(=O)(=O)C2)c1` (stereo unspecified), for which the half-inhibitory concentration (IC50) amounted to 86 nM.

Take `COc1ccc(CCCO)c(Nc2nc3ccccc3nc2NS(=O)(=O)c2cn(C)c(CO)n2)c1`: the half-inhibitory concentration (IC50) was found to be 84 nM.

For `COc1ccc(CCCO)c(Nc2nc3ccccc3nc2NS(=O)(=O)c2cccc(NC(=O)CO)c2)c1`, the 50% inhibitory concentration (IC50) came out at 12 nM.

Take `COc1ccc(CCO)c(Nc2nc3ccccc3nc2NS(=O)(=O)c2ccc(C)[n+]([O-])c2)c1`: the half-inhibitory concentration (IC50) is 106 nM.

Take `COc1ccc(CC2CCC(O)CC2)c(Nc2nc3ccccc3nc2NS(=O)(=O)c2cccnc2)c1` (stereo unspecified): the half-maximal inhibitory concentration (IC50) is 20 nM.

`COc1ccc(CCCO)c(Nc2nc3ccccc3nc2NS(=O)(=O)CCCS(C)(=O)=O)c1` registered an IC50 of 120 nM.

For `COc1ccc(CC2CCN(C)CC2)c(Nc2nc3ccccc3nc2NS(C)(=O)=O)c1`, the IC50 was found to be 110 nM.

Turning to `COc1ccc(C(=O)O)c(Nc2nc3ccccc3nc2NS(=O)(=O)c2cccnc2)c1`, the IC50 amounted to 4680 nM.

For the molecule `COc1cc(CN(C)C)cc(Nc2nc3ccccc3nc2NS(=O)(=O)c2cn(C)cn2)c1`, the 50% inhibitory concentration (IC50) amounted to 1100 nM.

`CCCCO.COCCc1ccc(OC)cc1Nc1nc2ccccc2nc1NS(=O)(=O)c1cn(C)cn1` came in with a concentration for half-maximal inhibition (IC50) of 83 nM.

For `COc1ccc(CCS(C)(=O)=O)c(Nc2nc3ccccc3nc2NS(=O)(=O)c2c(C)noc2C)c1`, the half-maximal inhibitory concentration (IC50) came out at 190 nM.

As for `COc1ccc(CC2C[C@H]3CC[C@@H](C2)N3C)c(Nc2nc3ccccc3nc2NS(=O)(=O)c2cn(C)cn2)c1` (stereo partly specified), the IC50 stood at 110 nM.

The molecule `COc1ccc(CN2CCN(C)CC2)c(Nc2nc3ccccc3nc2NS(=O)(=O)c2cccnc2)c1` gave an IC50 of 49 nM.

In turn, `COc1ccc(CCO)c(Nc2nc3ccccc3nc2NS(=O)(=O)c2ccc(C(=O)N(C)C)cc2)c1` showed an IC50 of 250 nM.

Consider `COC(=O)c1ccc(OC)cc1Nc1nc2ccccc2nc1NS(=O)(=O)c1cn(C)cn1`, for which the 50% inhibitory concentration (IC50) was 21 nM.

`COc1ccc(CC2CCCCC2)c(Nc2nc3ccccc3nc2NS(=O)(=O)c2cccnc2)c1` yielded an IC50 of 490 nM.

On to `COc1ccc(CCCO)c(Nc2nc3ccccc3nc2NS(=O)(=O)C2CCNCC2)c1`, for which the IC50 turned out to be 26 nM.

`COc1ccc(CCCO)c(Nc2nc3ccccc3nc2NS(=O)(=O)C2CCS(=O)(=O)C2)c1` (stereo unspecified) came in with a half-maximal inhibitory concentration (IC50) of 130 nM.

Molecule `COc1ccc(CCS(C)(=O)=O)c(Nc2nc3ccccc3nc2NS(=O)(=O)c2cn(C)cn2)c1` had an IC50 of 84 nM.

Take `COCCc1ccc(OC)cc1Nc1nc2ccccc2nc1NS(=O)(=O)C1CCN(C(C)=O)CC1`: the half-inhibitory concentration (IC50) turned out to be 300 nM.

Molecule `COc1ccc(CCO)c(Nc2nc3ccccc3nc2NS(=O)(=O)c2ccc(CN3CCC(F)CC3)cc2)c1` returned an IC50 of 43 nM.

`COC(=O)c1ccc(OC)cc1Nc1nc2ccccc2nc1NS(=O)(=O)c1cccnc1`: the 50% inhibitory concentration (IC50) is 88 nM.

`COc1ccc(CC(O)CO)c(Nc2nc3ccccc3nc2NS(=O)(=O)c2cn(C)cn2)c1` (stereo unspecified) had an IC50 of 120 nM.

`COc1ccc(CCO)c(Nc2nc3ccccc3nc2NS(=O)(=O)c2ccc(NC(=O)CO)cc2)c1` displayed a half-inhibitory concentration (IC50) of 65 nM.

The molecule `COc1ccc(CCCO)c(Nc2nc3ccccc3nc2NS(=O)(=O)c2c(C)noc2C)c1` returned a half-inhibitory concentration (IC50) of 130 nM.

Turning to `COc1ccc(CCCO)c(Nc2nc3ccccc3nc2NS(=O)(=O)c2cn(C)c(CS(C)(=O)=O)n2)c1`, the 50% inhibitory concentration (IC50) turned out to be 87 nM.

As for `COc1ccc(CCO)c(Nc2nc3ccccc3nc2NS(=O)(=O)c2ccc(OCCO)cc2)c1`, the IC50 was 34 nM.

Consider `COc1ccc(CCOC(=O)[C@@H](N)C(C)C)c(Nc2nc3ccccc3nc2NS(=O)(=O)c2cn(C)cn2)c1`, for which the IC50 came to 100 nM.

In the case of `COc1ccc(CCS(C)(=O)=O)c(Nc2nc3ccccc3nc2NS(C)(=O)=O)c1`, the IC50 worked out at 200 nM.

With `CCCS(=O)(=O)Nc1nc2ccccc2nc1Nc1cc(OC)ccc1CCCO`, the IC50 stood at 49 nM.

Turning to `COc1ccc(CC2CCN(C(C)=O)CC2)c(Nc2nc3ccccc3nc2NS(=O)(=O)c2cn(C)cn2)c1`, the IC50 was determined as 89 nM.

In the case of `COc1ccc(CCCO)c(Nc2nc3ccccc3nc2NS(=O)(=O)C2CCN(C(=O)OCc3ccccc3)CC2)c1`, the IC50 came to 720 nM.

Molecule `COC(=O)c1ccc(OC)cc1Nc1nc2ccccc2nc1NS(C)(=O)=O` gave a concentration for half-maximal inhibition (IC50) of 1650 nM.

`COc1ccc(CCCO)c(Nc2nc3ccccc3nc2NS(=O)(=O)c2cn(C)c(CN(C)C)n2)c1` returned an IC50 of 28 nM.

`COc1ccc(CC2CCN(C(=O)CN(C)C)CC2)c(Nc2nc3ccccc3nc2NS(=O)(=O)c2cn(C)cn2)c1` yielded an IC50 of 100 nM.

For `COc1ccc(CCCS(C)(=O)=O)c(Nc2nc3ccccc3nc2NS(=O)(=O)c2cn(C)cn2)c1`, the IC50 stood at 50 nM.

Turning to `COc1ccc(CCO)c(Nc2nc3ccccc3nc2NS(=O)(=O)c2ccc(CCCO)cc2)c1`, the concentration for half-maximal inhibition (IC50) was found to be 36 nM.

`COc1ccc(CC2CCOCC2)c(Nc2nc3ccccc3nc2NS(=O)(=O)c2cn(C)cn2)c1` had a concentration for half-maximal inhibition (IC50) of 49 nM.

As for `CCS(=O)(=O)Nc1nc2ccccc2nc1Nc1cc(OC)ccc1CCO`, the IC50 was found to be 60 nM.

On to `COc1ccc(CCO)c(Nc2nc3ccccc3nc2NS(=O)(=O)c2ccc(C#N)cc2)c1`, for which the 50% inhibitory concentration (IC50) turned out to be 22 nM.

`COc1ccc(CCS(C)(=O)=O)c(Nc2nc3ccccc3nc2NS(=O)(=O)C(C)C)c1` gave an IC50 of 160 nM.

The molecule `COc1ccc(CCS(C)(=O)=O)c(Nc2nc3ccccc3nc2NS(=O)(=O)c2ccccc2)c1` returned a half-maximal inhibitory concentration (IC50) of 42 nM.

`COc1ccc(S(=O)(=O)NCCO)c(Nc2nc3ccccc3nc2NS(=O)(=O)CCCS(C)(=O)=O)c1` gave a concentration for half-maximal inhibition (IC50) of 300 nM.

Take `COc1ccc(CCO)c(Nc2nc3ccccc3nc2NS(=O)(=O)c2c(C)noc2C)c1`: the IC50 was 286 nM.

`COc1ccc(C(CO)CO)c(Nc2nc3ccccc3nc2NS(=O)(=O)c2cn(C)cn2)c1` yielded an IC50 of 550 nM.

As for `COc1ccc(CCS(C)(=O)=O)c(Nc2nc3ccccc3nc2NS(=O)(=O)CCCS(C)(=O)=O)c1`, the IC50 was 350 nM.

For `COc1ccc(CCO)c(Nc2nc3ccccc3nc2NS(=O)(=O)C2CCCCC2)c1`, the IC50 came to 57 nM.

As for `COc1ccc(CC2CCS(=O)(=O)CC2)c(Nc2nc3ccccc3nc2NS(=O)(=O)c2ccc(CN(C)C)cc2)c1`, the IC50 was 10 nM.

The molecule `COc1ccc(CC2CCC(O)CC2)c(Nc2nc3ccccc3nc2NS(=O)(=O)c2cn(C)cn2)c1` (stereo unspecified) yielded a 50% inhibitory concentration (IC50) of 18 nM.

As to `COc1ccc(CC2CCN(C)CC2)c(Nc2nc3ccccc3nc2NS(=O)(=O)c2cccnc2)c1`, the IC50 stood at 45 nM.

As for `COCCc1ccc(OC)cc1Nc1nc2ccccc2nc1NS(=O)(=O)c1cn(C)c(CS(C)(=O)=O)n1`, the IC50 stood at 200 nM.

The molecule `COc1ccc(CCO)c(Nc2nc3ccccc3nc2NS(=O)(=O)CCCS(C)(=O)=O)c1` gave an IC50 of 120 nM.

`CCS(=O)(=O)Nc1nc2ccccc2nc1Nc1cc(OC)ccc1CCCO` yielded a half-inhibitory concentration (IC50) of 59 nM.

As to `COc1cc(CN2CCN(C)CC2)cc(Nc2nc3ccccc3nc2NS(=O)(=O)c2cccnc2)c1`, the 50% inhibitory concentration (IC50) worked out at 970 nM.

`COc1ccc(CC2CCCC2)c(Nc2nc3ccccc3nc2NS(=O)(=O)c2cn(C)cn2)c1` gave a half-inhibitory concentration (IC50) of 180 nM.

For `COc1ccc(CC2CCOCC2)c(Nc2nc3ccccc3nc2NS(=O)(=O)c2cccnc2)c1`, the IC50 worked out at 27 nM.

For `CCS(=O)(=O)Nc1nc2ccccc2nc1Nc1cc(OC)ccc1CCS(C)(=O)=O`, the half-maximal inhibitory concentration (IC50) is 88 nM.

Turning to `COc1ccc(CCOC(=O)[C@@H](NC(=O)OCC2c3ccccc3-c3ccccc32)C(C)C)c(Nc2nc3ccccc3nc2NS(=O)(=O)c2cn(C)cn2)c1`, the IC50 came out at 1840 nM.

Turning to `COc1ccc(CCCN(C)C)c(Nc2nc3ccccc3nc2NS(=O)(=O)c2cn(C)cn2)c1`, the half-maximal inhibitory concentration (IC50) turned out to be 11 nM.

In the case of `COc1ccc(CC2CCN(C(C)=O)CC2)c(Nc2nc3ccccc3nc2NS(=O)(=O)c2cccnc2)c1`, the IC50 was 51 nM.

`COCCc1ccc(OC)cc1Nc1nc2ccccc2nc1NS(=O)(=O)C1CCNCC1` came in with an IC50 of 98 nM.

With `COc1ccc(CC2CCSCC2)c(Nc2nc3ccccc3nc2NS(=O)(=O)c2ccc(CN(C)C)cc2)c1`, the IC50 is 35 nM.

`CCCS(=O)(=O)Nc1nc2ccccc2nc1Nc1cc(OC)ccc1CCS(C)(=O)=O` displayed an IC50 of 87 nM.

Take `COc1ccc(CCCO)c(Nc2nc3ccccc3nc2NS(=O)(=O)c2cccc(NC(=O)CN(C)C)c2)c1`: the IC50 was found to be 30 nM.

`COc1ccc(CC2CCS(=O)(=O)CC2)c(Nc2nc3ccccc3nc2NS(=O)(=O)c2cn(C)cn2)c1` gave an IC50 of 30 nM.

Turning to `COC(=O)CCc1ccc(S(=O)(=O)Nc2nc3ccccc3nc2Nc2cc(OC)ccc2CCO)cc1`, the IC50 came to 70 nM.

`COc1ccc(CCCO)c(Nc2nc3ccccc3nc2NS(C)(=O)=O)c1` displayed an IC50 of 64 nM.

As to `COc1cc(Nc2nc3ccccc3nc2NS(=O)(=O)c2cccnc2)cc(C(=O)N2CCN(C)CC2)c1`, the IC50 was 3340 nM.

`COc1ccc(CCS(C)(=O)=O)c(Nc2nc3ccccc3nc2NS(=O)(=O)c2cn(C)c(CN(C)C)n2)c1` registered an IC50 of 87 nM.

In the case of `COc1cc(Nc2nc3ccccc3nc2NS(=O)(=O)CCCS(C)(=O)=O)cc(C(=O)NCCO)c1`, the half-inhibitory concentration (IC50) was determined as 350 nM.

The molecule `COc1ccc(CC2CC(C)(C)N(C)C(C)(C)C2)c(Nc2nc3ccccc3nc2NS(=O)(=O)c2cn(C)cn2)c1` yielded a concentration for half-maximal inhibition (IC50) of 420 nM.

Molecule `COc1ccc(CCCO)c(Nc2nc3ccccc3nc2NS(=O)(=O)c2cccc(NC(=O)COCc3ccccc3)c2)c1` gave an IC50 of 480 nM.

On to `COc1ccc(CCO)c(Nc2nc3ccccc3nc2NS(C)(=O)=O)c1`, for which the IC50 amounted to 95 nM.

In the case of `COc1cc(Nc2nc3ccccc3nc2NS(C)(=O)=O)cc(C(=O)N2CCOCC2)c1`, the concentration for half-maximal inhibition (IC50) amounted to 5620 nM.

As for `COc1ccc(CCO)c(Nc2nc3ccccc3nc2NS(=O)(=O)c2ccc(NC(=O)CN(C)C)cc2)c1`, the IC50 turned out to be 27 nM.

In turn, `COc1ccc(CCO)c(Nc2nc3ccccc3nc2NS(=O)(=O)c2cn(C)cn2)c1` registered an IC50 of 48 nM.

`COc1ccc(C(C)C)c(Nc2nc3ccccc3nc2NS(=O)(=O)c2cn(C)cn2)c1` had an IC50 of 200 nM.

These data come from the Kinase Knowledgebase extract (Sharma et al. 2016).
